We go through 40 compounds from patent US6953789B2, “Thiol compounds, their production and use” (Takeda Chemical Industries, Ltd., priority 1998, dated 2005).

The first experiment concerns the target T1, recombinant human MMP-13 (Homo sapiens, UniProt P45452).
T1 construct: made in house; host or cells: baculovirus (pBlueBac4 / Bac-N-Blue; virus made in Sf9), expressed in High-Five insect cells; culture supernatant used
As to the kind of experiment: Assay of MMP-13 inhibiting activity (fluorogenic peptide substrate). In kind it is biochemical. As to conditions: Table 1; 37° C., 2 hours. The text has this:
Based on the sequence described in the literature by Freije, J. M. et al (Journal of Biological Chemistry, 269: 16766-16773, 1994) and using a PCR method known per se, a human MMP-13 cDNA was obtained.
A pBlueBac4 (Invitrogen) and a Baculovirus vector Bac-N-Blue (Invitrogen) to each of which the human MMP-13 cDNA obtained above was integrated were co-transfected to an Sf9 cell to obtain a MMP-13-expressing recombinant virus.
The recombinant virus thus obtained was infected to a High-Five cell (Invitrogen), and the culture supernatant after three days was employed as an enzyme solution. Experiment 2 Assay of MMP-13 inhibiting activity
75 μl of a sample containing the recombinant human MMP-13, 200 mM sodium chloride, 20 mM calcium chloride, 0.1% Brij 35, 1 mM 2-mercaptoethanol, 200 mM tris-HCl buffer solution (pH7.5) and a test substance at various concentrations was treated with 25 μl of 40 μM MOCAc-Pro-Leu-Gly-Leu-A2pr(DNP)-Ala-Arg-NH2 (PEPTIDE KENKYUSHO) to initiate a reaction and kept at 37° C. for 2 hours, and then 100 μl of 500 mM sodium acetate-HCl buffer solution (pH3.0) was added to terminate the reaction.
The level of liberated MOCAc-Pro-Leu-Gly was determined using a fluorophotometer (MTP-32/F2: CORONA DENKI) at the excitation wavelength of 330 nm and the fluorescent wavelength of 405 nm. The fluorescent level of the reaction in the absence of a test substance was regarded as 100%, and the concentration of each test substance required for achieving 50% inhibition was indicated as IC50.
As usually defined, the IC50 is the concentration needed to halve the response being measured. In the case of `CCSC1CC(=O)N(Cc2ccc(Oc3ccccc3)cc2)C1=O` (stereo not shown) [Example 2, 3-Ethylthio-1-(4-phenoxybenzyl)pyrrolidine-2,5-dione], the IC50 was over 10000 nM.

As to `O=C1CC(SSCC2CCCO2)C(=O)N1Cc1ccc(Oc2ccccc2)cc1` (stereo not shown) [Example 11, 3-[(Tetrahydro-2-furanyl)methyldithio]-1-(4-phenoxybenzyl)pyrrolidine-2,5-dione], the IC50 was determined as 100 nM.

Still in this experiment, the particulars now being: Table 2; 37° C., 2 hours.
On to `CC1C(=O)N(Cc2ccc(Oc3ccccc3)cc2)C(=O)C1S` (stereo not shown) [Example 8, 3-Mercapto-4-methyl-1-(4-phenoxybenzyl)pyrrolidine-2,5-dione], for which the IC50 was 20 nM.

Staying with this experiment, now noted: Table 3; 37° C., 2 hours.
Turning to `O=C1CC(S[C@@H]2CC(=O)N(Cc3ccc(Oc4ccccc4)cc3)C2)C(=O)N1` (stereo partly drawn) [Example 105, 3-{[(3R)-5-Oxo-1-(4-phenoxybenzyl)pyrrolidinyl]sulfanyl}-2,5-pyrrolidinedione], the IC50 was determined as 40 nM.

With `CCOC(=O)NCS[C@@H]1CC(=O)N(Cc2ccc(Oc3ccccc3)cc2)C1` [Example 103, Ethyl {[(3R)-5-oxo-1-(4-phenoxybenzyl)pyrrolidinyl]sulfanyl}methylcarbamate], the IC50 is 300 nM.

As for `O=C1C[C@@H](SSc2ccccc2[N+](=O)[O-])CN1Cc1ccc(Oc2ccccc2)cc1` [Example 87, (4R)-4-[(2-Nitrophenyl)disulfanyl)-1-(4-phenoxybenzyl)-2-pyrrolidinone], the 50% inhibitory concentration (IC50) amounted to 600 nM.

For the compound `O=C(NC(=O)c1ccccc1)S[C@@H]1CC(=O)N(Cc2ccc(Oc3ccccc3)cc2)C1` [Example 56, S-[(3R)-5-oxo-1-(4-phenoxybenzyl)pyrrolidinyl]benzoylthiocarbamate], the IC50 was 1.4 nM.

In the case of `CCCC(=O)S[C@@H]1CC(=O)N(Cc2ccc(Oc3ccccc3)cc2)C1` [Example 65, S-[(3R)-5-oxo-1-(4-phenoxybenzyl)pyrrolidinyl]butanethioate], the IC50 came to 1.3 nM.

Take `CNC(=O)S[C@@H]1CC(=O)N(Cc2ccc(Oc3ccccc3)cc2)C1` [Example 50, S-[(3R)-5-oxo-1-(4-phenoxybenzyl)pyrrolidinyl]methylthiocarbamate]: the IC50 was determined as 3 nM.

`CCCCC(=O)SC1CC(=O)N(Cc2ccc(Oc3ccccc3)cc2)C1` (stereo not drawn) [Example 66, S-[5-oxo-1-(4-phenoxybenzyl)-3-pyrrolidinyl]pentanethioate]: the IC50 worked out at 1 nM.

In the case of `O=C(NCc1ccccc1)S[C@@H]1CC(=O)N(Cc2ccc(Oc3ccccc3)cc2)C1` [Example 54, S-[(3R)-5-oxo-1-(4-phenoxybenzyl)pyrrolidinyl]benzylthiocarbamate], the IC50 came to 1.5 nM.

For `CC(C)C(=O)S[C@@H]1CC(=O)N(Cc2ccc(Oc3ccccc3)cc2)C1` [Example 67, S-[(3R)-5-oxo-1-(4-phenoxybenzyl)pyrrolidinyl]2-methylpropanethioate], the IC50 is 11 nM.

As to `CCC(=O)S[C@@H]1CC(=O)N(Cc2ccc(Oc3ccccc3)cc2)C1` [Example 64, S-[(3R)-5-oxo-1-(4-phenoxybenzyl)pyrrolidinyl]propanethioate], the IC50 was determined as 3.2 nM.

`O=C1C[C@@H](SCCO)CN1Cc1ccc(Oc2ccccc2)cc1` [Example 90, (4R)-4-[(2-Hydroxyethyl)sulfanyl)-1-(4-phenoxybenzyl)-2-pyrrolidinone]: the IC50 came out at 5000 nM.

As to `CC(=O)S[C@H]1CC(=O)N(Cc2ccc(Oc3ccccc3)cc2)C1` [Example 21, (S)-4-Acetylthio-1-(4-phenoxybenzyl)pyrrolidin-2-one], the half-inhibitory concentration (IC50) is 4000 nM.

Regarding `CCOC(=O)CCC(=O)S[C@@H]1CC(=O)N(Cc2ccc(Oc3ccccc3)cc2)C1` [Example 74, Ethyl 4-oxo-4-{[(3R)-5-oxo-1-(4-phenoxybenzyl)pyrrolidinyl]sulfanyl}butanoate], the IC50 was found to be 5.4 nM.

Consider `O=C(O)CSS[C@@H]1CC(=O)N(Cc2ccc(Oc3ccccc3)cc2)C1` [Example 83], for which the IC50 is 400 nM.

Turning to `O=C(NCS[C@@H]1CC(=O)N(Cc2ccc(Oc3ccccc3)cc2)C1)c1ccccc1` [Example 102, N-({[(3R)-5-oxo-1-(4-phenoxybenzyl)pyrrolidinyl]sulfanyl}methyl)benzamide], the IC50 came to 100 nM.

Consider `CCOC(=O)CSS[C@@H]1CC(=O)N(Cc2ccc(Oc3ccccc3)cc2)C1` [Example 82], for which the IC50 worked out at 50 nM.

As to `O=C(O)CCC(=O)S[C@@H]1CC(=O)N(Cc2ccc(Oc3ccccc3)cc2)C1` [Example 75, 4-Oxo-4-{[(3R)-5-oxo-1-(4-phenoxybenzyl)pyrrolidinyl]sulfanyl}butanoic acid], the IC50 came to 8 nM.

Still in this experiment, the particulars now being: Table 5; 37° C., 2 hours.
Regarding `O=C(NCCO)[C@H]1[C@H](S)CC(=O)N1Cc1ccc(Oc2ccccc2)cc1` (relative stereo) [Example 190, trans-5-(2-Hydroxyethyl)aminocarbonyl-4-mercapto-1-(4-phenoxybenzyl)pyrrolidin-2-one], the half-maximal inhibitory concentration (IC50) was 25 nM.

As for `CCCNC(=O)OC[C@H]1[C@H](SC(C)=O)CC(=O)N1Cc1ccc(Oc2ccccc2)cc1` (relative stereo) [Example 183, trans-4-Acetylthio-5-propylaminocarbonyloxymethyl-1-(4-phenoxybenzyl)pyrrolidin-2-one], the IC50 amounted to 20 nM.

Still in this experiment, the particulars now being: Table 7; 37° C., 2 hours.
For `O=C1CC(SSC2CC(=O)N(Cc3ccc(Oc4ccccc4)cc3)C2)CN1Cc1ccc(Oc2ccccc2)cc1` (stereo not shown) [Example 19, 4,4′-Dithiobis[1-(4-phenoxybenzyl)pyrrolidin-2-one]], the IC50 is 200 nM.

The experiment is the same for the next values; noted with them: Table 9; 37° C., 2 hours.
As for `CC(=O)S[C@@H]1CC(=O)N(Cc2ccc(Oc3ccc(Br)cc3)cc2)C1` [Example 199, (R)-4-Acetylthio-1-[4-(4′-bromophenoxy)benzyl]pyrrolidin-2-one], the IC50 came to 6 nM.

For `O=C1C[C@@H](S)CN1Cc1ccc(Oc2ccc(Br)cc2)cc1` [Example 200, (R)-4-Mercapto-1-[4-(4′-bromophenoxy)benzyl]pyrrolidin-2-one], the IC50 was found to be 2 nM.

In the case of `O=C1CC(S)CN1Cc1ccc(Oc2ccc(O)cc2)cc1` (stereo not shown) [Example 137, 4-Mercapto-1-[4-(4′-hydroxyphenoxy)benzyl]pyrrolidin-2-one], the IC50 came to 3 nM.

For the compound `Cc1ccc(Oc2ccc(CN3CC(S)CC3=O)cc2)cc1` (stereo not shown) [Example 128, 4-Mercapto-1-[4-(4′-methylphenoxy)benzyl]pyrrolidin-2-one], the IC50 came to 7 nM.

Consider `CS(=O)(=O)Nc1ccc(Oc2ccc(CN3CC(S)CC3=O)cc2)cc1` (stereo not shown) [Example 147, 4-Mercapto-1-[4-(4′-methylsulfonylaminophenoxy)benzyl]pyrrolidin-2-one], for which the IC50 stood at 1.2 nM.

With `CC(=O)SC1CC(=O)N(Cc2ccc(Oc3ccc(NS(C)(=O)=O)cc3)cc2)C1` (stereo not shown) [Example 146, 4-Acetylthio-1-[4-(4′-methylsulfonylaminophenoxy)benzyl]pyrrolidin-2-one], the IC50 was 25 nM.

As for `CCOc1ccc(Oc2ccc(CN3CC(S)CC3=O)cc2)cc1` (stereo not shown) [Example 139, 4-Mercapto-1-[4-(4′-ethoxyphenoxy)benzyl]pyrrolidin-2-one], the IC50 was 6 nM.

Staying with this experiment, now noted: Table 10; 37° C., 2 hours.
`CC(=O)SC1CC(=O)N(CCc2ccc(Oc3ccccc3)cc2)C1` (stereo not drawn) [Example 169, S-[5-Oxo-1-(4-phenoxyphenethyl)-3-pyrrolidinyl]ethanethioate]: the IC50 worked out at 7000 nM.

With `CC(=O)SC1CC(=O)N(Cc2ccc(Cc3ccccc3)cc2)C1` (stereo not shown) [Example 159, 4-Acetylthio-1-(4-benzylbenzyl)pyrrolidin-2-one], the IC50 worked out at 500 nM.

For `CC(=O)SC1CC(=O)N(Cc2ccc(OCc3ccccc3)cc2)C1` (stereo not shown) [Example 165, 4-Acetylthio-1-(4-benzyloxybenzyl)pyrrolidin-2-one], the IC50 amounted to 1000 nM.

For `O=C1CC(S)CN1Cc1ccc(CCc2ccccc2)cc1` (stereo not shown) [Example 168, 4-Mercapto-1-(4-phenethylbenzyl)pyrrolidin-2-one], the IC50 came to 70 nM.

Regarding `O=C1CC(S)CN1Cc1ccc(OCc2ccccc2)cc1` (stereo not shown) [Example 166, 4-Mercapto-1-(4-benzyloxybenzyl)pyrrolidin-2-one], the IC50 was 100 nM.

Staying with this experiment, now noted: Table 11; 37° C., 2 hours.
`CC(=O)SC1CC(=O)N(Cc2ccc3oc4ccccc4c3c2)C1` (stereo not shown) [Example 201, 4-Acetylthio-1-(2-dibenzofuranmethyl)pyrrolidin-2-one]: the IC50 came out at 300 nM.

Turning to `Cc1ccc(S(=O)(=O)N(c2ccccc2)c2ccc(CN3CC(S)CC3=O)cc2)cc1` (stereo not shown) [Example 204, 4-Mercapto-1-[4-(N-phenyl-N-p-toluenesulfonylamino)benzyl]pyrrolidin-2-one], the IC50 is 3900 nM.

On to `CC(=O)SC1CC(=O)N(Cc2ccc(Oc3ccsc3)cc2)C1` (stereo not shown) [Example 157, 4-Acetylthio-1-[4-(3′-thienyloxy)benzyl]pyrrolidin-2-one], for which the IC50 worked out at 6 nM.

Still in this experiment, the particulars now being: Table 13; 37° C., 2 hours.
As to `CC(=O)SC1CCCN(Cc2ccc(Oc3ccccc3)cc2)C1=O` (stereo not shown) [Example 46, 3-Acetylthio-1-(4-phenoxybenzyl)piperidin-2-one], the IC50 was over 10000 nM.

Regarding `O=C1C(S)CCCN1Cc1ccc(Oc2ccccc2)cc1` (stereo not shown) [Example 48, 3-Mercapto-1-(4-phenoxybenzyl)piperidin-2-one], the 50% inhibitory concentration (IC50) amounted to 5000 nM.
